Converted amounts (≈) assume the structure as drawn. Where two headings read alike, the source gives them in different places. Starred links: 1 amine or outer side, 2 acyl side, 3 side chain; linkers in the order of their positions; H or OH if unused. Positions of bridges follow the written chain, without caps; N, C: chain ends. Non-standard residues stand in square brackets, D forms with d. Residues, ends and D or L forms follow the SMILES beside them. Phe(3R-OH) = O=C([C@@H](N[*:1])[C@H](O[*:3])c1ccccc1)[*:2]; Phe(βR-NH) = O=C([C@@H](N[*:1])[C@H](N[*:3])c1ccccc1)[*:2]; X2 = O=C([C@H](Cc1ccc(C(F)(F)F)nc1)N[*:1])[*:2]; Asn(3S-OH) = NC(=O)[C@@H](O)[C@H](N)C(=O)O; Leu(3R-OH) = CC(C)[C@@H](O)[C@H](N)C(=O)O; X1 = Cc1cccc(C[C@H](N[*:1])C(=O)[*:2])n1; dAla(TMS) = C[Si](C)(C)C[C@@H](N)C(=O)O; d(tBuAla) = CC(C)(C)C[C@@H](N)C(=O)O; tBuAla = CC(C)(C)C[C@H](N)C(=O)O; 3Pal = N[C@@H](Cc1cccnc1)C(=O)O; aThr = C[C@H](O)[C@H](N)C(=O)O
Columns and labels:
[1] = system: Streptococcus pneumoniae G9a; format: cell-based
Protocol: (§1) Determination of the Minimum Inhibitory Concentration (MIC):
(§2) The MIC is determined in the liquid dilution test in accordance with the NCCLS guidelines. Overnight cultures of Staphylococcus aureus 133, Entercococcus faecalis 27159, E. faecium and Streptococcus pneumoniae G9a are incubated with the described test substances in a 1:2 dilution series. The MIC determination is carried out with a cell count of 10^5 microorganisms per ml in Isosensitest medium (Difco, Irvine/USA), with the exception of S. pneumoniae which is tested in BHI broth (Difco, Irvine/USA) with 10% bovine serum at a cell count of 10^6 microorganisms per ml. The cultures are incubated at 37° C. for 18-24 hours, S. pneumoniae in the presence of 10% CO2.
(§3) The lowest substance concentration in each case at which visible bacterial growth […] is defined as the MIC. The MIC values are reported in μg/ml.

[2] = system: Staphylococcus aureus 133; format: cell-based
Protocol: as §1, §2, §3

E. faecalis ICB 27159 = format: cell-based, Entercococcus faecalis
Protocol: as §1, §2, §3

E. faecium L4001 = format: cell-based
Protocol: as §1, §2, §3

[3] = BHI broth with 10% bovine serum, 10^6 microorganisms per ml, 37° C., 18-24 hours, 10% CO2
[4] = Isosensitest medium, 10^5 microorganisms per ml, 37° C., 18-24 hours

Row | SMILES | MIC S. pneumoniae G9a [1, 3] [µg/mL] | MIC S. aureus 133 [2, 4] [µg/mL] | MIC E. faecalis ICB 27159 (E. faecalis ICB 27159; [4]) [µg/mL] | MIC S. pneumoniae G9a ([1]; G9a) [µg/mL] | MIC S. aureus 133 [2]; 133 [µg/mL] | MIC E. faecalis ICB 27159 (E. faecalis ICB 27159; ICB 27159) [µg/mL] | MIC E. faecium L4001 (E. faecium L4001; L4001) [µg/mL] | MIC E. faecium L4001 (E. faecium L4001; [4]) [µg/mL]
1 | CC[C@H](C)[C@@H]1NC(=O)[C@@H](CCCNC(=N)N)NC(=O)[C@H](CC(C)C)NC(=O)[C@H]([C@H](O)C(C)C)NC(=O)[C@@H](NC(=O)[C@H](Cc2cccnc2)NC(=O)[C@H](N)C[Si](C)(C)C)[C@@H](c2ccccc2)NC(=O)[C@H](CO)NC(=O)[C@H]([C@H](O)C(N)=O)NC(=O)CNC(=O)[C@H]([C@H](C)O)NC1=O.O=C(O)C(F)(F)F.O=C(O)C(F)(F)F.O=C(O)C(F)(F)F [Example 3] (H-[dAla(TMS)][3Pal][Phe(βR-NH)][Leu(3R-OH)]L[dR]I[aThr]G[Asn(3S-OH)]S; lactam 3-C) | 0.25 | 0.125 | 2 | – | – | – | – | –
2 | CC[C@H](C)[C@@H]1NC(=O)[C@@H](CCCNC(=N)N)NC(=O)[C@H](CC(C)C)NC(=O)[C@H]([C@H](O)C(C)C)NC(=O)[C@@H](NC(=O)[C@H](Cc2ccc(C(F)(F)F)nc2)NC(=O)[C@H](N)CC(C)(C)C)[C@@H](c2ccccc2)NC(=O)[C@H](CO)NC(=O)[C@H]([C@H](O)C(N)=O)NC(=O)CNC(=O)[C@H]([C@H](C)O)NC1=O.O=C(O)C(F)(F)F.O=C(O)C(F)(F)F [Example 7] (H-[d(tBuAla)][X2][Phe(βR-NH)][Leu(3R-OH)]L[dR]I[aThr]G[Asn(3S-OH)]S; lactam 3-C) | – | – | – | 0.125 | 0.125 | 0.25 | – | –
3 | CC[C@H](C)[C@@H]1NC(=O)[C@@H](CCCNC(=N)N)NC(=O)[C@H](CC(C)C)NC(=O)[C@H]([C@H](O)C(C)C)NC(=O)[C@@H](NC(=O)[C@H](Cc2cccc(C)n2)NC(=O)[C@H](N)CC(C)(C)C)[C@@H](c2ccccc2)NC(=O)[C@H](CO)NC(=O)[C@H]([C@H](O)C(N)=O)NC(=O)CNC(=O)[C@H]([C@H](C)O)NC1=O.O=C(O)C(F)(F)F.O=C(O)C(F)(F)F.O=C(O)C(F)(F)F [Example 6] (H-[d(tBuAla)][X1][Phe(βR-NH)][Leu(3R-OH)]L[dR]I[aThr]G[Asn(3S-OH)]S; lactam 3-C) | – | – | – | 0.25 | 0.25 | 0.5 | – | –
4 | CC[C@H](C)[C@@H]1NC(=O)[C@@H](CCCNC(=N)N)NC(=O)[C@H](CC(C)C)NC(=O)[C@H]([C@H](O)C(C)C)NC(=O)[C@@H](NC(=O)[C@H](CC(C)C)NC(=O)[C@H](N)CC(C)C)[C@@H](c2ccccc2)OC(=O)[C@H](CO)NC(=O)[C@H]([C@H](O)C(N)=O)NC(=O)CNC(=O)[C@H]([C@H](C)O)NC1=O [Example 1A, reference compound] (H-[dL]L[Phe(3R-OH)][Leu(3R-OH)]L[dR]I[aThr]G[Asn(3S-OH)]S; ester 3-C) | – | – | – | 0.063 (≈ 0.0494 µM) | 0.5 (≈ 0.392 µM) | 0.5 (≈ 0.392 µM) | 0.5 (≈ 0.392 µM) | –
5 | CC[C@H](C)[C@@H]1NC(=O)[C@@H](CCCNC(=N)N)NC(=O)[C@H](CC(C)C)NC(=O)[C@H]([C@H](O)C(C)C)NC(=O)[C@@H](NC(=O)[C@H](CC(C)(C)C)NC(=O)[C@H](N)CC(C)(C)C)[C@@H](c2ccccc2)NC(=O)[C@H](CO)NC(=O)[C@H]([C@H](O)C(N)=O)NC(=O)CNC(=O)[C@H]([C@H](C)O)NC1=O [Example 1, [3-tert-Butyl-D-alanyl]-[3-tert-butyl-L-alanyl]-[(3R)-3-amino-L-phenylalanyl)]-[(3R)-3-hydroxy-L-leucyl]-L-leucyl-D-arginyl-L-isoleucyl-L-allothreonyl-glycyl-[(3S)-3-hydroxy-L-asparaginyl]-L-serine C^1.11—N^3.3-lactam bistrifluoroacetate] (H-[d(tBuAla)][tBuAla][Phe(βR-NH)][Leu(3R-OH)]L[dR]I[aThr]G[Asn(3S-OH)]S; lactam 3-C) | 0.063 (≈ 0.0483 µM) | 0.5 (≈ 0.384 µM) | 0.25 (≈ 0.192 µM) | – | – | – | – | 0.25 (≈ 0.192 µM)
6 | CC[C@H](C)[C@@H]1NC(=O)[C@@H](CCCNC(=N)N)NC(=O)[C@H](CC(C)C)NC(=O)[C@H]([C@H](O)C(C)C)NC(=O)[C@@H](NC(=O)[C@H](CC(C)(C)C)NC(=O)[C@H](N)CC(C)C)[C@@H](c2ccccc2)NC(=O)[C@H](CO)NC(=O)[C@H]([C@H](O)C(N)=O)NC(=O)CNC(=O)[C@H]([C@H](C)O)NC1=O.O=C(O)C(F)(F)F.O=C(O)C(F)(F)F [Example 9] (H-[dL][tBuAla][Phe(βR-NH)][Leu(3R-OH)]L[dR]I[aThr]G[Asn(3S-OH)]S; lactam 3-C) | – | – | – | 0.125 | 0.25 | 0.5 | – | –
